Results: patent US5854204A, “Aβ peptides that modulate β-amyloid aggregation” (priority 1996, dated 1998)
One block for each compound: values may come before it. Numbered stars: 1 amine (or outer) side, 2 acyl side, 3 side chain; on linkers, the order of the positions; unused ones are H or OH. Square brackets hold non-standard residues; d marks the D form. Peptide text beside a SMILES is read from it. * marks the point of attachment. Cholyl = C[C@H](CCC(=O)*)[C@H]1CC[C@H]2[C@@H]3[C@H](O)C[C@@H]4C[C@H](O)CC[C@]4(C)[C@H]3C[C@H](O)[C@]12C; X2 = O=C(C1(O)C[C@H](O)[C@@H](N[*:1])[C@H]([C@H](O)[C@H](O)CO)O1)[*:2]; βAla = NCCC(=O)O

Key:
[1] = biological target: T1, Aβ1-40 (Homo sapiens, UniProt P05067);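 note: Aβ nucleation assay tracking fiber polymerization from monomer by turbidity (light scattering), shaken continuously in 96-well plates, read every 15 min over 5 h, compared with compound-free control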
T1 sequence (P05067 672-711): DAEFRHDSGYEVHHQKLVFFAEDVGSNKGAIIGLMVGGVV
Description: (§1) The nucleation assay is employed to determine the ability of test compounds to alter (e.g. inhibit) the early events in formation of β-AP fibers from monomeric β-AP. […] The time delay before polymerization of β-AP monomer can be quantified as well as the extent of formation of insoluble fiber by light scattering (turbidity). Polymerization reaches equilibrium when the maximum turbidity reaches a plateau. […] The threshold of sensitivity for the measurement of turbidity is in the range of 15-20 μM β-AP. […] This assay can be performed using stirring or shaking to accelerate polymerization, thereby increasing the speed of the assay. Moreover the assay can be adapted to a 96-well plate format to screen multiple compounds.
(§2) HFIP-solubilized peptide is sonicated in a waterbath sonicator for 5 min at highest setting, then evaporated to dryness under a stream of argon. […] Test compounds are dissolved in DMSO at a 100× concentration. […] Ten microliters of the mixture is then added to the bottom of a well of a Corning Costar ultra low binding 96-well plate (Corning Costar, Cambridge Mass.; cat. No. 2500). […] The plate is then returned to the shaker and shaken continuously for 5 hours. Turbidity readings are taken at 15 minute intervals.
(§3) Accordingly a fold increase in lag time of 1.0 indicates no change in lag time, whereas numbers >1.0 indicate an increase in lag time. The "% inhibition of plateau", which is a measure of the ability of the compound to decrease the total amount of aggregation, refers to the reduction of the final turbidity in the presence of the test compound expressed as a percent of the control without the test compound.

[2] = biological target: T1, Aβ1-40; assay: biochemical; conditions: read-out: % Inucl'n (percent reduction in maximum turbidity)
Description: as §1, §2, §3

[3] = biological target: T1, Aβ1-40; assay: Seeded extension assay (thioflavin T fluorescence); format: biochemical; parameters: Natural β-AP (β-AP1-40) was obtained commercially from Bachem (Torrance, Calif.); purchased Bachem (Torrance, Calif.); conditions: Table V; 25 mole % inhibitor
Description: The seeded extension assay can be employed to measure the rate of Aβ fiber formed in a solution of Aβ monomer following addition of polymeric Aβ fiber "seed". The ability of test compounds to prevent further deposition of monomeric Aβ to previously deposited amyloid is determined using a direct indicator of β-sheet formation using fluorescence. In contrast with the nucleation assay, the addition of seed provides immediate nucleation and continued growth of preformed fibrils without the need for continuous mixing, and thus results in the absence of a lag time before polymerization starts. Since this assay uses static polymerization conditions, the activity of positive compounds in the nucleation assay can be confirmed in this second assay under different conditions and with an additional probe of amyloid structure.
Samples of the solution are then diluted in thioflavin T (Th-T). The polymer-specific association of Th-T with Aβ produces a fluorescent complex that allows the measurement of the extent of fibril formation (Levine, H. (1993) Protein Science 2:404-410). In particular, association of Th-T with aggregated β-AP, but not monomeric or loosely associated β-AP, gives rise to a new excitation (ex) maximum at 450 nm and an enhanced emission (em) at 482 nm, compared to the 385 nm (ex) and 445 nm (em) for the free dye. Small aliquots of the polymerization mixture contain sufficient fibril to be mixed with Th-T to allow the monitoring of the reaction mixture by repeated sampling. A linear growth curve is observed in the presence of excess monomer. The formation of thioflavin T responsive β-sheet fibrils parallels the increase in turbidity observed using the nucleation assay.
To prepare the stock seed, 1 ml of the Aβ monomer preparation, is incubated for approximately 8 days at 37° C. and sheared sequentially through an 18, 23, 26 and 30 gauge needle 25, 25, 50, and 100 times respectively. 2 μl samples of the sheared material is taken for fluorescence measurements after every 50 passes through the 30 gauge needle until the fluorescence units (FU) plateau (approx. 100-150×). Test compounds are prepared by dissolving an appropriate amount of test compound in 1× PBS to a final concentration of 1 mM (10× stock). If insoluble, the compound is dissolved in 1/10 volume of DMSO and diluted in 1× PBS to 1 mM. A further 1/10 dilution is also prepared to test each candidate at both 100 μM and 10 μM.
To perform the seeded extension assay, each sample is set up with 50 μl of 200 μM monomer, 125 FU sheared seed (a variable quantity dependent on the batch of seed, routinely 3-6 μl) and 10 μl of 10× modulator solution. The sample volume is then adjusted to a final volume of 100 μl with 1× PBS. Two concentrations of each modulator typically are tested: 100 μM and 10 μM, equivalent to a 1:1 and a 1:10 molar ratio of monomer to modulator. The controls include an unseeded reaction to confirm that the fresh monomer contains no seed, and a seeded reaction in the absence of any modulators, as a reference to compare against candidate modulators. The assay is incubated at 37° C. for 6 h, taking 2 μl samples hourly for fluorescence measurements. To measure fluorescence, a 2 μl sample of Aβ is added to 400 μl of Thioflavin-T solution (50 mM Potassium Phosphate […] pH 7.5). The samples are vortexed and the fluorescence is read in a 0.5 ml micro quartz cuvette at EX 450 nm and EM 482 nm (Hitachi 4500 Fluorimeter).
The modulators were evaluated in the nucleation and seeded extension assays described in Example 6 and the results are summarized below in Table V. The change in lag time (ΔLag) is presented as the ratio of the lag time observed in the presence of the test compound to the lag time of the control. […] Inhibition (% Inucl'n) is listed as the percent reduction in the maximum observed turbidity in the control at the end of the assay time period. […]

Structure (SMILES): CC(C)C[C@H](NC(=O)[C@H](CCCCN)NC(=O)[C@H](CCC(N)=O)NC(=O)[C@H](Cc1c[nH]cn1)NC(=O)CC[C@@H](C)[C@H]1CC[C@H]2[C@@H]3[C@H](O)C[C@@H]4C[C@H](O)CC[C@]4(C)[C@H]3C[C@H](O)[C@]12C)C(=O)N[C@H](C(=O)N[C@@H](Cc1ccccc1)C(=O)N[C@@H](Cc1ccccc1)C(=O)O)C(C)C [PPI-348] (Cholyl-HQKLVFF-OH)
% Inhibition of Plateau [1]: 49%
inhibition at 33 % [2]: 70%

Structure (SMILES): CC(C)C[C@H](NC(=O)[C@H](CCCCN)NC(=O)[C@H](CCC(N)=O)NC(=O)CC[C@@H](C)[C@H]1CC[C@H]2[C@@H]3[C@H](O)C[C@@H]4C[C@H](O)CC[C@]4(C)[C@H]3C[C@H](O)[C@]12C)C(=O)N[C@H](C(=O)N[C@@H](Cc1ccccc1)C(=O)N[C@@H](Cc1ccccc1)C(=O)O)C(C)C [PPI-349, cholyl-Aβ15-20]
% Iext'n (percent reduction of thioflavin-T fluorescence) [3]: 56%
inhibition at 100 % [2]: 100%

Structure (SMILES): CC(C)C[C@H](NC(=O)[C@H](CCCCN)NC(=O)CC[C@@H](C)[C@H]1CC[C@H]2[C@@H]3[C@H](O)C[C@@H]4C[C@H](O)CC[C@]4(C)[C@H]3C[C@H](O)[C@]12C)C(=O)N[C@H](C(=O)N[C@@H](Cc1ccccc1)C(=O)N[C@@H](Cc1ccccc1)C(=O)O)C(C)C [PPI-350, cholyl-Aβ16-20]
% Iext'n (percent reduction of thioflavin-T fluorescence) [3]: 11%

Structure (SMILES): CC(C)C[C@H](NC(=O)[C@H](CCCCN)NC(=O)CC[C@@H](C)[C@H]1CC[C@H]2[C@@H]3[C@H](O)C[C@@H]4C[C@H](O)CC[C@]4(C)[C@H]3C[C@H](O)[C@]12C)C(=O)N[C@H](C(=O)N[C@@H](Cc1ccccc1)C(=O)N[C@@H](Cc1ccccc1)C(=O)O)[C@@H](C)O [PPI-369] (Cholyl-KLTFF-OH)
% Iext'n (percent reduction of thioflavin-T fluorescence) [3]: 44%
% Inhibition of Plateau [1]: ~ 0%

Structure (SMILES): CC(C)C[C@H](NC(=O)[C@H](CCCCN)NC(=O)CC[C@@H](C)[C@H]1CC[C@H]2[C@@H]3[C@H](O)C[C@@H]4C[C@H](O)CC[C@]4(C)[C@H]3C[C@H](O)[C@]12C)C(=O)N[C@H](C(=O)N[C@@H](C)C(=O)N[C@@H](Cc1ccccc1)C(=O)O)C(C)C [PPI-370, cholyl-Aβ16-20 Phe19- >Ala] (Cholyl-KLVAF-OH)
% Iext'n (percent reduction of thioflavin-T fluorescence) [3]: 31%
% Inhibition of Plateau [1]: 73%

Structure (SMILES): CC(C)C[C@H](NC(=O)[C@H](CCCCN)NC(=O)CC[C@@H](C)[C@H]1CC[C@H]2[C@@H]3[C@H](O)C[C@@H]4C[C@H](O)CC[C@]4(C)[C@H]3C[C@H](O)[C@]12C)C(=O)N[C@H](C(=O)N[C@@H](Cc1ccccc1)C(=O)N[C@@H](Cc1ccccc1)C(=O)NCCC(=O)O)C(C)C [PPI-371] (Cholyl-KLVFF[βAla]-OH)
% Iext'n (percent reduction of thioflavin-T fluorescence) [3]: 80%
inhibition at 100 % [2]: 76%

Structure (SMILES): CC(C)C[C@H](NC(=O)[C@@H](NC(=O)[C@H](Cc1ccccc1)NC(=O)[C@H](CCCCN)NC(=O)[C@H](Cc1ccccc1)NC(=O)CC[C@@H](C)[C@H]1CC[C@H]2[C@@H]3[C@H](O)C[C@@H]4C[C@H](O)CC[C@]4(C)[C@H]3C[C@H](O)[C@]12C)C(C)C)C(=O)O [PPI-372] (Cholyl-FKFVL-OH)
% Iext'n (percent reduction of thioflavin-T fluorescence) [3]: 37%
inhibition at 100 % [2]: 45%

% Iext'n (percent reduction of thioflavin-T fluorescence) [3]: 8%
inhibition at 100 % [2]: 16%
Structure (SMILES): CC(=O)N[C@H]1[C@H]([C@H](O)[C@H](O)CO)OC(O)(C(=O)N[C@@H](CCCCN)C(=O)N[C@@H](CC(C)C)C(=O)N[C@H](C(=O)N[C@@H](Cc2ccccc2)C(=O)N[C@@H](Cc2ccccc2)C(=O)O)C(C)C)C[C@@H]1O (stereo partly shown) [PPI-373] (Ac-[X2]KLVFF-OH)

% Iext'n (percent reduction of thioflavin-T fluorescence) [3]: 0%
% Inhibition of Plateau [1]: 86%
Structure (SMILES): CC(C)C[C@H](NC(=O)[C@H](CCCCN)NC(=O)CCCC[C@@H]1SC[C@@H]2NC(=N)N[C@@H]21)C(=O)N[C@H](C(=O)N[C@@H](Cc1ccccc1)C(=O)N[C@@H](Cc1ccccc1)C(=O)O)C(C)C [PPI-374, iminobiotinyl-Aβ16-20]

Structure (SMILES): CC(C)[C@H](NC(=O)[C@@H](NC(=O)[C@H](CCCCN)NC(=O)CC[C@@H](C)[C@H]1CC[C@H]2[C@@H]3[C@H](O)C[C@@H]4C[C@H](O)CC[C@]4(C)[C@H]3C[C@H](O)[C@]12C)[C@@H](C)O)C(=O)N[C@@H](Cc1ccccc1)C(=O)N[C@@H](Cc1ccccc1)C(=O)O [PPI-375] (Cholyl-KTVFF-OH)
% Iext'n (percent reduction of thioflavin-T fluorescence) [3]: 21%
inhibition at 100 % [2]: 18%

Structure (SMILES): CC(C)C[C@H](NC(=O)CC[C@@H](C)[C@H]1CC[C@H]2[C@@H]3[C@H](O)C[C@@H]4C[C@H](O)CC[C@]4(C)[C@H]3C[C@H](O)[C@]12C)C(=O)N[C@H](C(=O)N[C@@H](Cc1ccccc1)C(=O)N[C@@H](Cc1ccccc1)C(=O)N[C@@H](C)C(=O)N[C@@H](CCC(=O)O)C(=O)O)C(C)C [PPI-379] (Cholyl-LVFFAE-OH)
% Iext'n (percent reduction of thioflavin-T fluorescence) [3]: 16%
inhibition at 100 % [2]: 55%

Structure (SMILES): CC(C)C[C@H](NC(=O)CC[C@@H](C)[C@H]1CC[C@H]2[C@@H]3[C@H](O)C[C@@H]4C[C@H](O)CC[C@]4(C)[C@H]3C[C@H](O)[C@]12C)C(=O)N[C@H](C(=O)N[C@@H](Cc1ccccc1)C(=O)N[C@@H](Cc1ccccc1)C(=O)O)C(C)C [PPI-380]
% Iext'n (percent reduction of thioflavin-T fluorescence) [3]: 51%
inhibition at 33 % [2]: 72%

Structure (SMILES): CC(C)C[C@H](NC(=O)CC[C@@H](C)[C@H]1CC[C@H]2[C@@H]3[C@H](O)C[C@@H]4C[C@H](O)CC[C@]4(C)[C@H]3C[C@H](O)[C@]12C)C(=O)N[C@H](C(=O)N[C@@H](Cc1ccccc1)C(=O)N[C@@H](Cc1ccccc1)C(=O)N[C@H](C)C(=O)O)C(C)C [PPI-381]
% Iext'n (percent reduction of thioflavin-T fluorescence) [3]: 11%
inhibition at 100 % [2]: 56%

Structure (SMILES): CC(C)C[C@H](NC(=O)CC[C@@H](C)[C@H]1CC[C@H]2[C@@H]3[C@H](O)C[C@@H]4C[C@H](O)CC[C@]4(C)[C@H]3C[C@H](O)[C@]12C)C(=O)N[C@H](C(=O)N[C@@H](Cc1ccccc1)C(=O)N[C@@H](Cc1ccccc1)C(=O)N[C@@H](C)C(N)=O)C(C)C [PPI-382]
% Iext'n (percent reduction of thioflavin-T fluorescence) [3]: 91%
inhibition at 100 % [2]: -200%

Structure (SMILES): CC(C)[C@H](NC(=O)[C@H](C)NC(=O)CC[C@@H](C)[C@H]1CC[C@H]2[C@@H]3[C@H](O)C[C@@H]4C[C@H](O)CC[C@]4(C)[C@H]3C[C@H](O)[C@]12C)C(=O)N[C@@H](Cc1ccccc1)C(=O)N[C@@H](Cc1ccccc1)C(=O)N[C@@H](C)C(=O)O [PPI-388] (Cholyl-AVFFA-OH)
% Iext'n (percent reduction of thioflavin-T fluorescence) [3]: 44%
inhibition at 100 % [2]: 68%

Structure (SMILES): CC(C)C[C@H](NC(=O)CC[C@@H](C)[C@H]1CC[C@H]2[C@@H]3[C@H](O)C[C@@H]4C[C@H](O)CC[C@]4(C)[C@H]3C[C@H](O)[C@]12C)C(=O)N[C@@H](C)C(=O)N[C@@H](Cc1ccccc1)C(=O)N[C@@H](Cc1ccccc1)C(=O)N[C@@H](C)C(=O)O [PPI-389] (Cholyl-LAFFA-OH)
% Iext'n (percent reduction of thioflavin-T fluorescence) [3]: 66%
inhibition at 100 % [2]: 47%

Structure (SMILES): CC(C)C[C@H](NC(=O)CC[C@@H](C)[C@H]1CC[C@H]2[C@@H]3[C@H](O)C[C@@H]4C[C@H](O)CC[C@]4(C)[C@H]3C[C@H](O)[C@]12C)C(=O)N[C@H](C(=O)N[C@@H](C)C(=O)N[C@@H](Cc1ccccc1)C(=O)N[C@@H](C)C(=O)O)C(C)C [PPI-390] (Cholyl-LVAFA-OH)
% Iext'n (percent reduction of thioflavin-T fluorescence) [3]: 0%
inhibition at 100 % [2]: 25%

Structure (SMILES): COC(=O)[C@H](C)NC(=O)[C@H](Cc1ccccc1)NC(=O)[C@H](Cc1ccccc1)NC(=O)[C@@H](NC(=O)[C@H](CC(C)C)NC(=O)CC[C@@H](C)[C@H]1CC[C@H]2[C@@H]3[C@H](O)C[C@@H]4C[C@H](O)CC[C@]4(C)[C@H]3C[C@H](O)[C@]12C)C(C)C [PPI-401]
% Iext'n (percent reduction of thioflavin-T fluorescence) [3]: 0%
